Source: US8575145B2, “Triazolopyridine compounds as PIM kinase inhibitors” (Array BioPharma Inc., priority 2008, dated 2013)
Counter-ions that a name gives are not always drawn.

Assays:
[1] = tested on: C.B17/Icr-Prkdc^scid/IcrIcoCrl mice, adoptive transfer model of IBD; assay: CD4+CD45RBhi Adoptive Transfer Inflammatory Bowel Disease; type: in vivo, mouse; conditions: 200 mg/kg oral twice daily, 21 days of treatment
Method: On Day 0, CD4+ T cells were isolated from the spleens of female Balb/cAnNCrl mice (Charles River Laboratories; 12 weeks old) as described in Example E. The resulting cells were labeled with fluorescent antibodies against CD4 and CD45 markers and were sorted by flow cytometry for CD4+CD45RBhi cells based on fluorescence. 400,000 CD4+CD45RBhi cells were then injected intraperitoneally into C.B17/Icr-Prkdc^scid/IcrIcoCrl mice (Charles River Laboratories strain code 236; 12 weeks old). This injection of cells is known to those skilled in the art as adoptive transfer. […]
For each H&E stained section, submucosal edema was quantitated by measuring the distance from the muscularis mucosa to the internal border of the outer muscle layer in a non-tangential area thought to most representative the severity of this change. Mucosal thickness was also measured in a non-tangential area of the section that best represented the overall mucosal thickness. […]
The parameters reflecting epithelial cell loss/damage were scored individually using a % area involved scoring method: […]
The three scored parameters (inflammation, glandular epithelial loss, and erosion) were ultimately summed to arrive at a sum of histopathology scores, which indicates the overall damage and would have a maximum score of 15.

[2] = tested on: C57BL/6J mice immunized with hen egg lysozyme; assay: B Cell in vivo Functional Assay (HEL-specific antibody isotypes); set-up: species or system mouse; conditions: 200 mg/kg oral once a day, Day 21, vs vehicle
Method: To determine the effect of a compound of Formula I on B cell responses, the following experiment was conducted. On Day O, C57BL/6J mice (Jackson Laboratories #000664, 6-8 weeks of age) were immunized at the base of the tail with 20 μg of hen egg lysozyme (HEL; Sigma #L7773) with complete Freund's adjuvant (CFA; Sigma #F5881). Mice were re-immunized on day 7 with 20 μg HEL in alum (Pierce catalog #77161). Starting on Day 0 and continuing through Day 28, mice were dosed once a day by oral administration with vehicle (water) or the compound of Example 26 (200 mg/kg). Serum was collected on days 0, 7, 14, 21, and 28 and analyzed for HEL-specific total IgG, IgG1, IgG2a, IgG2b, and IgG3 antibody production by capture ELISA (antibodies purchased from Invitrogen, catalog #M30007, #M32107, #M32307, #M32507, #M32607). ELISA plates were quantitated using Molecular Devices Versamax reader at […]. The group mean titer of each antibody analyte was converted to percent of vehicle control (=100%).

[3] = tested on: C57BL/6J mice, MOG-induced EAE; assay: MOG(35-55)-induced Experimental Autoimmune Encephalomyelitis; type: in vivo, mouse; conditions: 200 mg/kg oral gavage twice daily, days 7 through 27; vehicle and untreated 3.0
Method: To further determine the effect of compounds of Formula I on an autoimmune disease associated with T cells and cytokines, a MOG-induced experimental autoimmune encephalomyelitis (EAE) experiment was performed. MOG-induced EAE is an animal model of human multiple sclerosis (Brain (2006), 129, 1953-1971).
On Day 0, C57BL/6J mice (Jackson Laboratories #000664, 6-8 weeks of age) were injected subcutaneously with 100 μL of complete Freund's adjuvant (CFA) prepared as a 1:1 emulsion of (a) incomplete Freund's adjuvant (Difco, catalog #263910) containing 8 mg/mL m. tuberculosis H37RA (Difco, catalog #231141) and (b) phosphate buffered saline (PBS) containing 1 mg/mL MOG(35-55) peptide (California Peptide Research Inc). On the day 0 and 2, mice were injected intravenously with 200 ng of pertussis toxin (List Biological Laboratories, catalog #181). On day 7, the mice were randomized into treatment groups which received vehicle (distilled water) or the compound of Example 26 (200 mg/kg) administered by oral gavage twice daily from days 7 through 27.
The mice were scored daily on days 7 through 37 using the following clinical scoring system:
1.5—unsteady gait, mild hind limb ataxia
2.0—partial hind limb paralysis (hind limbs carrying weight)
2.5—partial hind limb paralysis (hind limbs not carrying weight)
3.0—full hind limb paralysis
3.5—full hind limb paralysis and partial front limb paralysis

[4] = tested on: C57BL/6 mice immunized with hen egg lysozyme; assay: T Cell In Vivo Functional Assay (HEL immunization, ex vivo recall); set-up: species or system mouse; conditions: 200 mg/kg oral twice a day, 7 days; relative to vehicle
Method: To determine the effect of compounds of Formula I on T cell responses, the following experiment was conducted. On Day O, C57BL/6 (Jackson Laboratories #000664, 6-8 weeks of age) were immunized at the base of the tail with 100 μg of hen egg lysozyme (HEL; Sigma #L7773) with complete Freund's adjuvant (CFA; Sigma #F5881). Starting on Day 0 and continuing until Day 7, mice were dosed twice a day by oral administration with vehicle (water) or the compound of Example 26 (200 mg/kg). On Day 7, opopiteal lymph nodes were removed, single cell suspensions were prepared and 500,000 cells in 200 μL were activated in 96 well plates with the indicated dose of HEL peptide. Following incubation for 72 hours at 37° C., 5% CO2, supernatants were harvested for IFNγ ELISA (R&D Systems catalog #MIF00) and proliferation was assessed using the CellTitre-Glo™ luminescent assay (Promega, Catalog #G7571) with both assays performed according to the manufacturer's protocol. ELISA plates were quantified relative to a standard curve using Molecular Devices Versamax Reader at […] and Softmax Pro software; proliferation was quantitated on a Packard TopCount instrument using luminescence protocol and data was analyzed using excel software.

F[C@@H]1CNCCC1Oc1cccc2ccc(-c3nnc4ccccn34)nc12 (stereo in doubt) [Example 26, 2-([1,2,4]triazolo[4,3-a]pyridin-3-yl)-8-((cis)-3-fluoropiperidin-4-yloxy)quinoline dihydrochloride]
colon histopathology scores (inflammation, gland loss, erosion) [1]: reduced severity of disease
decrease in mucosal thickening relative to vehicle [1]: 84%
HEL-specific IgG2a titer [2]: decreased
HEL-specific IgG2b titer [2]: decreased
HEL-specific IgG3 titer [2]: decreased
median maximal clinical score [3]: 1.5
ex vivo HEL-specific proliferation [4]: decreased
ex vivo IFNγ production [4]: decreased
